Experimental data published in PubChem BioAssay (NCI).
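96-well plates; 48 h exposure; 5 concentrations. Endpoints by linear interpolation between flanking doses. Not reached: highest tested concentration assigned. TGI is the concentration that stops growth completely.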

Key:
Experiment in all cases: DTP human tumour cell line panel, 48 h
[1] = tested on: MALME-3M melanoma
[2] = tested on: HCT-15 colon
[3] = tested on: RPMI-8226 leukemia
[4] = tested on: ACHN renal
[5] = tested on: A498 renal
[6] = tested on: CCRF-CEM leukemia
[7] = tested on: EKVX NSCLC
[8] = tested on: SNB-19 CNS
[9] = tested on: CAKI-1 renal
[10] = tested on: SK-OV-3 ovarian
[11] = tested on: BT-549 breast
[12] = tested on: SF-268 CNS
[13] = tested on: SN12C renal
[14] = tested on: IGROV1 ovarian
[15] = tested on: MDA-N
[16] = tested on: UO-31 renal
[17] = tested on: HS 578T breast
[18] = tested on: COLO 205 colon
[19] = tested on: HCC-2998 colon
[20] = tested on: NCI-H23 lung
[21] = tested on: NCI/ADR-RES ovarian
[22] = tested on: M14 melanoma
[23] = tested on: HL-60(TB) leukemia
[24] = tested on: MOLT-4 leukemia
[25] = tested on: K-562 leukemia
[26] = tested on: SNB-75 CNS
[27] = tested on: KM12 colon
[28] = tested on: T-47D breast
[29] = tested on: OVCAR-5 ovarian
[30] = tested on: A549 NSCLC
[31] = tested on: HT29 colon
[32] = tested on: OVCAR-4 ovarian
[33] = tested on: NCI-H460 lung
[34] = tested on: MDA-MB-231 breast
[35] = tested on: TK-10 renal
[36] = tested on: HOP-92 NSCLC
[37] = tested on: MDA-MB-435
[38] = tested on: SF-295 CNS
[39] = tested on: SK-MEL-28 melanoma
[40] = tested on: OVCAR-3 ovarian
[41] = tested on: 786-0 renal
[42] = tested on: U251 CNS
[43] = tested on: OVCAR-8 ovarian
[44] = tested on: NCI-H226 lung
[45] = tested on: UACC-62 melanoma
[46] = tested on: RXF 393 renal
[47] = tested on: SW-620 colon
[48] = tested on: NCI-H522 lung
[49] = tested on: HOP-62 NSCLC
[50] = tested on: SK-MEL-2 melanoma
[51] = tested on: MCF7 breast
[52] = tested on: PC-3 prostate
[53] = tested on: HCT-116 colon
[54] = tested on: SF-539 CNS
[55] = tested on: UACC-257 melanoma
[56] = tested on: LOX IMVI melanoma
[57] = tested on: SK-MEL-5 melanoma

How did the TGI [1] turn out when `NCCCN(CCCCN(CCCN)Cc1ccc2ccccc2c1)Cc1ccc2ccccc2c1` was run?
The TGI was 3.39 µM.

What about the TGI [2] of the same compound?
The TGI was 13.1 µM.

What about the TGI [3] of the same compound?
The TGI was 6.88 µM.

What about the TGI [4] of the same compound?
The TGI was 3.3 µM.

What about the TGI [5] of the same compound?
The TGI was 5.06 µM.

What about the TGI [6] of the same compound?
Its TGI is > 100 µM.

What about the TGI [7] of the same compound?
The TGI was 3.37 µM.

What about the TGI [8] of the same compound?
The TGI was 2.86 µM.

And the TGI [9]?
Its TGI is 3.15 µM.

And the TGI [10]?
Its TGI is 3.39 µM.

What about the TGI [11] of the same compound?
The TGI was 3.89 µM.

And the TGI [12]?
The TGI was 2.57 µM.

What about the TGI [13] of the same compound?
The TGI was 3.08 µM.

And the TGI [14]?
The TGI was 3.3 µM.

What about the TGI [15] of the same compound?
Its TGI is 3.3 µM.

And the TGI [16]?
Its TGI is 6.1 µM.

And the TGI [17]?
Its TGI is 3.06 µM.

What about the TGI [18] of the same compound?
The TGI was 5.22 µM.

What about the TGI [19] of the same compound?
Its TGI is 9.37 µM.

What about the TGI [20] of the same compound?
Its TGI is 3.34 µM.

What about the TGI [21] of the same compound?
The TGI was 54.3 µM.

And the TGI [22]?
The TGI was 3.63 µM.

And the TGI [23]?
Its TGI is > 100 µM.

What about the TGI [24] of the same compound?
Its TGI is 4.74 µM.

What about the TGI [25] of the same compound?
The TGI was > 100 µM.

What about the TGI [26] of the same compound?
The TGI was 3.89 µM.

And the TGI [27]?
The TGI was 3.32 µM.

What about the TGI [28] of the same compound?
Its TGI is 5.03 µM.

What about the TGI [29] of the same compound?
Its TGI is 3.44 µM.

And the TGI [30]?
Its TGI is 3.2 µM.

And the TGI [31]?
Its TGI is 3.11 µM.

What about the TGI [32] of the same compound?
Its TGI is 4.09 µM.

And the TGI [33]?
Its TGI is 3.43 µM.

What about the TGI [34] of the same compound?
The TGI was 11.8 µM.

What about the TGI [35] of the same compound?
The TGI was 5.05 µM.

What about the TGI [36] of the same compound?
The TGI was 5.75 µM.

What about the TGI [37] of the same compound?
The TGI was 4.27 µM.

What about the TGI [38] of the same compound?
Its TGI is 3.7 µM.

For `Cc1ccc(/C=N/Nc2cnccn2)s1`, which TGI [39] is on record?
The TGI was > 100 µM.

And the TGI [1]?
Its TGI is > 100 µM.

And the TGI [40]?
Its TGI is > 100 µM.

And the TGI [2]?
The TGI was > 100 µM.

And the TGI [3]?
The TGI was > 100 µM.

And the TGI [4]?
The TGI was > 100 µM.

And the TGI [41]?
Its TGI is > 100 µM.

What about the TGI [6] of the same compound?
Its TGI is > 100 µM.

What about the TGI [42] of the same compound?
The TGI was > 100 µM.

What about the TGI [7] of the same compound?
Its TGI is > 100 µM.

What about the TGI [8] of the same compound?
Its TGI is > 100 µM.

What about the TGI [9] of the same compound?
The TGI was > 100 µM.

What about the TGI [43] of the same compound?
The TGI was > 100 µM.

What about the TGI [10] of the same compound?
The TGI was > 100 µM.

And the TGI [11]?
The TGI was > 100 µM.

And the TGI [44]?
The TGI was > 100 µM.

And the TGI [45]?
Its TGI is > 100 µM.

What about the TGI [12] of the same compound?
Its TGI is > 100 µM.

What about the TGI [13] of the same compound?
Its TGI is > 100 µM.

And the TGI [46]?
Its TGI is > 100 µM.

And the TGI [47]?
Its TGI is > 100 µM.

What about the TGI [14] of the same compound?
The TGI was > 100 µM.

And the TGI [15]?
Its TGI is > 100 µM.

What about the TGI [16] of the same compound?
The TGI was > 100 µM.

And the TGI [48]?
Its TGI is > 100 µM.

And the TGI [17]?
The TGI was > 100 µM.

And the TGI [18]?
Its TGI is > 100 µM.

And the TGI [19]?
The TGI was > 100 µM.

And the TGI [49]?
Its TGI is > 100 µM.

And the TGI [20]?
Its TGI is > 100 µM.

What about the TGI [21] of the same compound?
Its TGI is > 100 µM.

What about the TGI [22] of the same compound?
The TGI was > 100 µM.

What about the TGI [23] of the same compound?
Its TGI is > 100 µM.

What about the TGI [50] of the same compound?
Its TGI is > 100 µM.

And the TGI [24]?
Its TGI is > 100 µM.

And the TGI [25]?
The TGI was > 100 µM.

What about the TGI [51] of the same compound?
Its TGI is > 100 µM.

What about the TGI [52] of the same compound?
Its TGI is > 100 µM.

What about the TGI [53] of the same compound?
The TGI was > 100 µM.

What about the TGI [26] of the same compound?
The TGI was > 100 µM.

And the TGI [54]?
Its TGI is > 100 µM.

And the TGI [27]?
Its TGI is > 100 µM.

What about the TGI [28] of the same compound?
Its TGI is > 100 µM.

And the TGI [29]?
Its TGI is > 100 µM.

And the TGI [30]?
The TGI was > 100 µM.

And the TGI [31]?
Its TGI is > 100 µM.

What about the TGI [55] of the same compound?
Its TGI is > 100 µM.

What about the TGI [56] of the same compound?
The TGI was > 100 µM.

What about the TGI [57] of the same compound?
The TGI was > 100 µM.

And the TGI [32]?
The TGI was > 100 µM.

What about the TGI [34] of the same compound?
Its TGI is > 100 µM.

What about the TGI [35] of the same compound?
Its TGI is > 100 µM.

What about the TGI [36] of the same compound?
Its TGI is > 100 µM.

And the TGI [37]?
Its TGI is > 100 µM.

And the TGI [38]?
The TGI was > 100 µM.
